Measurements as given in ChEMBL document CHEMBL1158966, “Chemical characterization and pharmacological activity of nazlinin, a novel indole alkaloid from Nitraria schoberi” (1991).
Active and inactive are the calls of the source. No cut-off for these calls is given here.

What was measured:
[1] = (§1) Contractile activity in rabbit celiac artery; assay type: functional, Oryctolagus cuniculus
Oryctolagus cuniculus [2] = organism: Oryctolagus cuniculus; assay: as §1; assay type: functional
[3] = (§2) Contractile activity in rabbit mesenteric artery; assay type: functional, Oryctolagus cuniculus
Oryctolagus cuniculus [4] = organism: Oryctolagus cuniculus; assay: as §2; assay type: functional
[5] = Contractile activity in rabbit celiac arteries relative to control; assay type: functional; conditions: Oryctolagus cuniculus, Celiac artery
[6] = Contractile activity in rabbit mesenteric arteries relative to control; assay type: functional; conditions: Oryctolagus cuniculus, Mesenteric artery
Oryctolagus cuniculus [7] = organism: Oryctolagus cuniculus; assay: Vasorelaxant activity against PGF2-alpha-induced contraction in endothelium-intact rabbit aortic rings up to 40 nmol; assay type: functional, tissue-based; conditions: Aorta
Aorta [8] = assay: Contractile activity in endothelium-intact rabbit aortic rings at >40 nmol to 400 nmol; assay type: functional, tissue-based; conditions: Oryctolagus cuniculus
Oryctolagus cuniculus [9] = organism: Oryctolagus cuniculus; assay: Vasorelaxant activity against PGF2-alpha-induced contraction in endothelium-denuded rabbit aortic rings at 0.04 to 400 nmol; assay type: functional, tissue-based; conditions: Aorta
Oryctolagus cuniculus [10] = organism: Oryctolagus cuniculus; assay: Vasorelaxant activity against PGF2-alpha-induced contraction in endothelium-intact rabbit aortic rings in presence of ketanserin tartrate; assay type: functional, tissue-based; conditions: Aorta
Aorta [11] = assay: Contractile activity in endothelium-intact rabbit aortic rings in presence of ketanserin tartrate; assay type: functional, tissue-based; conditions: Oryctolagus cuniculus
Oryctolagus cuniculus [12] = organism: Oryctolagus cuniculus; assay: Vasorelaxant activity against PGF2-alpha-induced contraction in endothelium-intact rabbit aortic rings in presence of indomethacin; assay type: functional, tissue-based; conditions: Aorta
Oryctolagus cuniculus [13] = organism: Oryctolagus cuniculus; assay: Vasorelaxant activity against PGF2-alpha-induced contraction in endothelium-intact rabbit aortic rings in presence of prazosin; assay type: functional, tissue-based; conditions: Aorta
Oryctolagus cuniculus [14] = organism: Oryctolagus cuniculus; assay: Vasorelaxant activity against PGF2-alpha-induced contraction in endothelium-intact rabbit aortic rings in presence of phentolamine; assay type: functional, tissue-based; conditions: Aorta
Oryctolagus cuniculus [15] = organism: Oryctolagus cuniculus; assay: Vasorelaxant activity against PGF2-alpha-induced contraction in endothelium-intact rabbit aortic rings in presence of propranolol hydrochloride; assay type: functional, tissue-based; conditions: Aorta
Oryctolagus cuniculus [16] = organism: Oryctolagus cuniculus; assay: Vasorelaxant activity against PGF2-alpha-induced contraction in endothelium-intact rabbit aortic rings in presence of atropine sulfate; assay type: functional, tissue-based; conditions: Aorta

Q: For `NC1CCCCNCCc2c1[nH]c1ccccc21` (stereo not given) [NAZLININ], which ED50 [1] is on record?
A: Its ED50 is 115 nmol.

Q: What about the Activity (Oryctolagus cuniculus [2]) of the same compound?
A: The Activity was “Dose-dependent effect”.

Q: And the ED50 [3]?
A: Its ED50 is 70 nmol.

Q: And the Activity (Oryctolagus cuniculus [4])?
A: Its Activity is “Dose-dependent effect”.

Q: What about the Emax [5] of the same compound?
A: The Emax was 71%.

Q: What about the Emax [6] of the same compound?
A: The Emax was 83%.

Q: And the Activity (Oryctolagus cuniculus [7])?
A: The Activity was “Active”.

Q: What about the Activity (Aorta [8]) of the same compound?
A: Its Activity is “Active”.

Q: And the Activity (Oryctolagus cuniculus [9])?
A: Its Activity is “inactive”.

Q: What about the Activity (Oryctolagus cuniculus [10]) of the same compound?
A: The Activity was “Active”.

Q: And the Activity (Aorta [11])?
A: Its Activity is “inactive”.

Q: What about the Activity (Oryctolagus cuniculus [12]) of the same compound?
A: The Activity was “Active”.

Q: And the Activity (Oryctolagus cuniculus [13])?
A: The Activity was “Active”.

Q: What about the Activity (Oryctolagus cuniculus [14]) of the same compound?
A: Its Activity is “Active”.

Q: And the Activity (Oryctolagus cuniculus [15])?
A: The Activity was “Active”.

Q: And the Activity (Oryctolagus cuniculus [16])?
A: The Activity was “Active”.

Q: Which results are given for `NCCc1c[nH]c2ccc(O)cc12` [SEROTONIN]?
A: ED50 [1]: 0.156 nmol; Activity (Oryctolagus cuniculus [2]): Dose-dependent effect; ED50 [3]: 0.126 nmol; Activity (Oryctolagus cuniculus [4]): Dose-dependent effect; Emax [5]: 110%; Emax [6]: 108%; Activity (Oryctolagus cuniculus [7]): Active; Activity (Aorta [8]): Active; Activity (Oryctolagus cuniculus [9]): inactive
